Results from US20160355530A1, “HEPATITIS C INHIBITORS AND USES THEREOF” (AbbVie Inc., priority 2010, published 2016).
Read-outs that look alike come from different tables or passages of the source.

Key:
[1] = biological target: T1, HCV NS5B polymerase 1a-H77 (Hepatitis C virus genotype 1a, UniProt P27958); experiment: biochemical; design: species or system HCV genotype 1a; conditions: enzyme, strain 1a H77; read-out: HCV Polymerase Strain 1a H77 IC50
T1 construct: six-histidine tag; made in house; host or cells: E. coli
T1 sequence (P27958 2421-2990): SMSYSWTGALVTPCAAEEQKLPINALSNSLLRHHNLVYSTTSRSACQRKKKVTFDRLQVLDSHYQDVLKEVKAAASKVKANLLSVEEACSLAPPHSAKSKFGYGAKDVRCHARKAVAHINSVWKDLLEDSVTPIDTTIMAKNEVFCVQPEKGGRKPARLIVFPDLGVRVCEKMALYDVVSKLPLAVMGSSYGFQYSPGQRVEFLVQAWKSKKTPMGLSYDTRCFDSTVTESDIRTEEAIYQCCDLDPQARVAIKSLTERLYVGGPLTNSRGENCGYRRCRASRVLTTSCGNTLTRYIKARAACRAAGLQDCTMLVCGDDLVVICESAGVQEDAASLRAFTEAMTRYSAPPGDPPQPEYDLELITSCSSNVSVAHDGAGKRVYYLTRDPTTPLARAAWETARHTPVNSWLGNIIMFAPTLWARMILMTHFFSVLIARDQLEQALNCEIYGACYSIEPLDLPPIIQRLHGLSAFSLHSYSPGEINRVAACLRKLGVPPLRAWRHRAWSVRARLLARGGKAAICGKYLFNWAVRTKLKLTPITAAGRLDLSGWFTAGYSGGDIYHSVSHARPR
Procedure, shortened: (§1)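 Recombinant NS5B (residues 1–570, His-tagged, E. coli-expressed) copied 5 nM of a 2.1 kb HCV 1b negative-strand 3′-end RNA template with 20 μM CTP, 20 μM ATP and 0.284 μM [3H]UTP for 3 h at 30 °C. Spermine-precipitated RNA was filter-captured and counted, and IC50 was fitted by nonlinear regression.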

[2] = biological target: T2, HCV NS5B polymerase 1a-H77-C316Y (Hepatitis C virus genotype 1a, UniProt P27958, C2736Y); experiment: biochemical; design: species or system HCV genotype 1a
T2 construct: six-histidine tag; made in house; host or cells: E. coli
T2 sequence (P27958 2421-2990 C2736Y): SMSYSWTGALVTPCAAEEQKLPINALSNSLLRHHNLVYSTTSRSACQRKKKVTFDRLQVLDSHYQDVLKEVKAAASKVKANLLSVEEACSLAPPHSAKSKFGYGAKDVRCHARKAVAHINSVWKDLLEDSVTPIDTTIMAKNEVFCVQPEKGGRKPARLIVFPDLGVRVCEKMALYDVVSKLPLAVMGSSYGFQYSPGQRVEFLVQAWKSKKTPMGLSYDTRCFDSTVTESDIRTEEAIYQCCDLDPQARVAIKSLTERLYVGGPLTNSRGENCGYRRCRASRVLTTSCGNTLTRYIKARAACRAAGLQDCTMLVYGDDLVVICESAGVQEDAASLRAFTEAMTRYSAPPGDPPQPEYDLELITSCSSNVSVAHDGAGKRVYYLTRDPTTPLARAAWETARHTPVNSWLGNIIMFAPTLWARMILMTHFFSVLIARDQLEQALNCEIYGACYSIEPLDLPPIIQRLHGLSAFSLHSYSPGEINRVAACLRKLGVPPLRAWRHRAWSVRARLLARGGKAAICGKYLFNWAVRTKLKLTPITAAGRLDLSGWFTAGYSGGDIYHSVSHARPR
Procedure, shortened: as §1

[3] = system: HCV NS5B polymerase 1a-H77-C316Y; experiment: biochemical; design: species or system HCV genotype 1a; conditions: ratio of enzyme IC50s, 1a H77-C316Y / 1a H77
Procedure, shortened: as §1

[4] = biological target: T3, HCV NS5B polymerase 1b BK strain (Hepatitis C virus genotype 1b, UniProt P26663); experiment: HCV NS5B polymerase enzymatic inhibition assay, strain 1b BK; type: biochemical; conditions: enzyme, strain 1b BK; read-out: HCV Polymerase Strain 1b BK IC50
T3 construct: six-histidine tag; made in house; host or cells: E. coli
T3 sequence (P26663 2420-2989): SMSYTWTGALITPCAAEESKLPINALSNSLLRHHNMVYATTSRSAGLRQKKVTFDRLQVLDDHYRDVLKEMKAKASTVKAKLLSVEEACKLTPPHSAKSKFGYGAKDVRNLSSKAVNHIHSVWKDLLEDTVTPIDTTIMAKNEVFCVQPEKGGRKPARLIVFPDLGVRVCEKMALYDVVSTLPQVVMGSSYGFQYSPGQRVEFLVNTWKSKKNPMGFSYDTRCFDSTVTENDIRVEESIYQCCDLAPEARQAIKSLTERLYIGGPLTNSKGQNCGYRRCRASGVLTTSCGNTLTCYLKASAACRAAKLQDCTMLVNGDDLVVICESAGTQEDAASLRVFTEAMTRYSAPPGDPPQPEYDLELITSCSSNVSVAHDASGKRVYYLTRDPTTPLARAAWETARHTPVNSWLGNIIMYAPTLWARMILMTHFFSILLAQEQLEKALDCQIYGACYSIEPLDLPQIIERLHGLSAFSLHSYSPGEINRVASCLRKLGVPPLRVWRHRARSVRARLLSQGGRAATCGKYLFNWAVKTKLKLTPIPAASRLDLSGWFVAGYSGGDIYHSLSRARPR
Procedure, shortened: as §1

[5] = system: HCV 1a-H77 subgenomic replicon; experiment: microbe, parasite or virus in culture; type: cell-based, HCV genotype 1a; conditions: Hepatitis C virus, stable replicon
[6] = system: HCV 1b-BB7 subgenomic replicon; experiment: microbe, parasite or virus in culture; type: cell-based, HCV genotype 1b; conditions: Hepatitis C virus, stable replicon
[7] = system: chimeric replicon with 2a-J6CF-derived NS5B; experiment: microbe, parasite or virus in culture; type: cell-based, HCV genotype 2a; conditions: Hepatitis C virus, read-out: 2a chimera 5% FBS EC50
[8] = system: chimeric replicon with genotype 2b NS5B; experiment: microbe, parasite or virus in culture; type: cell-based, HCV genotype 2b; conditions: Hepatitis C virus, read-out: 2b chimera 5% FBS EC50
[9] = system: chimeric replicon with genotype 3a NS5B; experiment: microbe, parasite or virus in culture; type: cell-based, HCV genotype 3a; conditions: Hepatitis C virus, read-out: 3a chimera 5% FBS EC50
[10] = system: chimeric replicon with genotype 4a NS5B; experiment: microbe, parasite or virus in culture; type: cell-based, HCV genotype 4a; conditions: Hepatitis C virus, read-out: 4a chimera 5% FBS EC50
[11] = system: HCV 1a-H77 transient subgenomic replicon in Huh-7 derived cell line; experiment: microbe, parasite or virus in culture; type: cell-based, HCV genotype 1a; conditions: Hepatitis C virus, Huh-7; transient replicon, 5% FBS; read-out: Transient Replicon 1a H77 5% FBS EC50
Procedure, shortened: (§2)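 Transient format: T7-transcribed replicon RNA lacking Neo, electroporated into Huh-7-derived cells (5×10^3/well), input RNA checked by luciferase at 4 h. Three-fold compound dilution series, 0.5% DMSO, 4 days at 37° C; EC50 from luciferase signal in lysed cells.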

[12] = system: HCV 1a-H77-C316Y transient subgenomic replicon in Huh-7 derived cell line; experiment: microbe, parasite or virus in culture; type: cell-based, HCV genotype 1a; conditions: for EC50: Hepatitis C virus, Huh-7, read-out: Transient Replicon 1a H77-C316Y 5% FBS EC50; for Transient Replicon Fold Resistance C316Y/1a: ratio of transient replicon EC50s, C316Y / 1a H77
Procedure, shortened: as §2

[13] = 5% FBS, absence of human plasma, read-out: Stable Replicon 1a H77 5% FBS EC50
[14] = strain 1a H77, 5% FBS + 40% human plasma, read-out: 1a H77 5% FBS + 40% Human Plasma EC50
[15] = strain 1a H77, 5% FBS, no human plasma, read-out: 1a H77 5% FBS EC50
[16] = strain 1a H77, 5% FBS, read-out: 1a H77 5% FBS EC50
[17] = strain 1b BB7, 5% FBS + 40% human plasma, read-out: 1b BB7 5% FBS + 40% Human Plasma EC50
[18] = strain 1b BB7, 5% FBS, no human plasma, read-out: 1b BB7 5% FBS EC50
[19] = strain 1b BB7, 5% FBS, read-out: 1b BB7 5% FBS EC50

Row | SMILES | IC50 [1] | IC50 [2] | C316Y/1a Fold Resistance [3] | IC50 [4] | EC50 [5, 13] | EC50 [5, 14] | EC50 [5, 15] | EC50 [5, 16] | EC50 [6, 17] | EC50 [6, 18] | EC50 [6, 19] | EC50 [7] | EC50 [8] | EC50 [9] | EC50 [10] | EC50 [11] | EC50 [12] | Transient Replicon Fold Resistance C316Y/1a [12]
1 | CC(O)CCCN(c1cc2oc(-c3ccc(F)cc3)c(-c3ncc[nH]3)c2cc1C1CC1)S(C)(=O)=O (stereo not drawn) [Example 100, N-[5-cyclopropyl-2-(4-fluorophenyl)-3-(1H-imidazol-2-yl)-1-benzofuran-6-yl]-N-(4-hydroxypentyl)methanesulfonamide] | 0.0035 µM | 0.053 µM | 15 fold | 0.008 µM | 0.006 µM | 0.088 µM | 0.006 µM | 0.006 µM | 0.057 µM | 0.0034 µM | 0.0034 µM | 0.0198 µM | 0.0163 µM | 0.0031 µM | 0.0216 µM | 0.0042 µM | 0.0891 µM | 21 fold
2 | CS(=O)(=O)CCCN(c1cc2oc(-c3ccc(F)cc3)c(-c3ncc[nH]3)c2cc1C1CC1)S(C)(=O)=O [Example 101, N-[5-cyclopropyl-2-(4-fluorophenyl)-3-(1H-imidazol-2-yl)-1-benzofuran-6-yl]-N-[3-(methylsulfonyl)propyl]methanesulfonamide] | 0.005 µM | 0.046 µM | 9 fold | 0.011 µM | 0.0041 µM | 0.11 µM | 0.0041 µM | 0.00412 µM | 0.075 µM | 0.0059 µM | 0.0059 µM | 0.033 µM | 0.0334 µM | 0.0043 µM | 0.0564 µM | 0.0037 µM | 0.102 µM | 28 fold
3 | CS(=O)(=O)N(CCCC(N)=O)c1cc2oc(-c3ccc(F)cc3)c(-c3ncc[nH]3)c2cc1C1CC1 [Example 108, 4-{[5-cyclopropyl-2-(4-fluorophenyl)-3-(1H-imidazol-2-yl)-1-benzofuran-6-yl](methylsulfonyl)amino}butanamide] | 0.0035 µM | 0.06 µM | 17 fold | 0.028 µM | 0.0153 µM | 0.049 µM | 0.0153 µM | 0.0153 µM | 0.057 µM | 0.0101 µM | 0.0101 µM | 0.156 µM | 0.187 µM | 0.011 µM | 0.104 µM | 0.0079 µM | 0.203 µM | 26 fold
4 | CS(=O)(=O)N(CCCN1CCS(=O)(=O)CC1)c1cc2oc(-c3ccc(F)cc3)c(C3=NOCCN3)c2cc1C1CC1 [Example 114, N-[5-cyclopropyl-3-(5,6-dihydro-4H-1,2,4-oxadiazin-3-yl)-2-(4-fluorophenyl)-1-benzofuran-6-yl]-N-[3-(1,1-dioxidothiomorpholin-4-yl)propyl]methanesulfonamide] | 0.007 µM | 0.07 µM | 10 fold | 0.043 µM | 0.0271 µM | 0.406 µM | 0.0271 µM | 0.0271 µM | 0.377 µM | 0.033 µM | 0.033 µM | 0.299 µM | 0.331 µM | 0.0562 µM | 0.307 µM | 0.0218 µM | 0.238 µM | 11 fold
5 | CC(C)(C#N)CCCCN(c1cc2oc(-c3ccc(F)cc3)c(C3=NOCCN3)c2cc1C1CC1)S(C)(=O)=O [Example 115, N-(5-cyano-5-methylhexyl)-N-[5-cyclopropyl-3-(5,6-dihydro-4H-1,2,4-oxadiazin-3-yl)-2-(4-fluorophenyl)-1-benzofuran-6-yl]methanesulfonamide] | 0.0039 µM | 0.037 µM | 10 fold | 0.033 µM | 0.0095 µM | 0.038 µM | 0.0095 µM | 0.0095 µM | 0.127 µM | 0.014 µM | 0.014 µM | 0.167 µM | 0.146 µM | 0.03 µM | 0.124 µM | 0.0073 µM | 0.0907 µM | 12 fold
6 | CCOC(=O)CCCN(c1cc2oc(-c3ccc(F)cc3)c(C3=NOCCN3)c2cc1C1CC1)S(C)(=O)=O [Example 121, ethyl 4-{[5-cyclopropyl-3-(5,6-dihydro-4H-1,2,4-oxadiazin-3-yl)-2-(4-fluorophenyl)-1-benzofuran-6-yl](methylsulfonyl)amino}butanoate] | 0.0035 µM | 0.04 µM | 12 fold | 0.055 µM | 0.0387 µM | 0.311 µM | 0.0387 µM | 0.0387 µM | 0.388 µM | 0.068 µM | 0.068 µM | 1 µM | 1 µM | 0.121 µM | 0.988 µM | 0.028 µM | 0.287 µM | 10 fold
7 | CS(=O)(=O)CCCCN(c1cc2oc(-c3ccc(F)cc3)c(C3=NOCCN3)c2cc1C1CC1)S(C)(=O)=O [Example 122, N-[5-cyclopropyl-3-(5,6-dihydro-4H-1,2,4-oxadiazin-3-yl)-2-(4-fluorophenyl)-1-benzofuran-6-yl]-N-[4-(methylsulfonyl)butyl]methanesulfonamide] | 0.0069 µM | 0.046 µM | 7 fold | 0.025 µM | 0.0084 µM | 0.05 µM | 0.0084 µM | 0.0084 µM | 0.081 µM | 0.011 µM | 0.011 µM | 0.13 µM | 0.127 µM | 0.032 µM | 0.0839 µM | 0.0067 µM | 0.0623 µM | 9 fold
8 | CS(=O)(=O)N(CCC1CCS(=O)(=O)C1)c1cc2oc(-c3ccc(F)cc3)c(C3=NOCCN3)c2cc1C1CC1 (stereo not drawn) [Example 123] | 0.0095 µM | 0.076 µM | 8 fold | 0.014 µM | 0.0109 µM | 0.108 µM | 0.0109 µM | 0.0109 µM | 0.211 µM | 0.018 µM | 0.018 µM | 0.162 µM | 0.105 µM | 0.0364 µM | 0.0581 µM | 0.0107 µM | 0.0789 µM | 7 fold
9 | CS(=O)(=O)N(CCCS(N)(=O)=O)c1cc2oc(-c3ccc(F)cc3)c(C3=NOCCN3)c2cc1C1CC1 [Example 124, 3-{[5-cyclopropyl-3-(5,6-dihydro-4H-1,2,4-oxadiazin-3-yl)-2-(4-fluorophenyl)-1-benzofuran-6-yl](methylsulfonyl)amino}propane-1-sulfonamide] | 0.0045 µM | 0.037 µM | 8 fold | 0.029 µM | 0.0443 µM | 0.501 µM | 0.0443 µM | 0.0443 µM | 0.984 µM | 0.044 µM | 0.044 µM | 1 µM | 1 µM | 0.139 µM | 0.962 µM | 0.0334 µM | 0.276 µM | 8 fold
